One experiment concerns MRSA. The experiment is described as follows: Checkerboard assay, FIC index. In kind it is cell-based, S. aureus. The following applies: antibiotic with the PBAE-G polymer. The method, then: (§1) Fractional inhibitory concentration (FIC) measurement. The synergy between the cationic polymer and antibiotic was assessed by checkerboard assays. The two antibacterial components were mixed in a 96-well plate with serial two-dimensional dilutions. Bacteria were inoculated in each well of the plate and their growth, reflected by the OD600 value, was monitored. The synergy effect was evaluated by calculating the FIC index according to the formula below:
(§2) [formula] MICA^Comb and MICB^Comb indicate the MICS of the two components in combination. The interactions between the two components are defined according to standard criteria of considering FIC≤0.5 as synergistic; 0.5<FIC≤1 as additive; 1<FIC≤4 as indifference; and FIC>4 as antagonism.

Experiment [1] relates to P. aeruginosa (ATCC 27853). Put plainly: MIC, broth microdilution. In kind it is cell-based. The method, then: (§3) Bacterial strains. S. aureus Newman was kindly provided by Prof. Douglas Weibel; E. coli ATCC25922, S. aureus ATCC 33591 and P. aeruginosa ATCC 27853 were purchased from ATCC. E. coli DH5a was purchased from Thermo Fisher. These bacteria were grown in Mueller Hinton Broth (MHB) media (Criterion, Santa Maria, CA, USA). M. smegmatis mc^2155 strain was kindly provided by Prof. Adel M. Talaat's laboratory, and it was grown in Middlebrook 7H9 broth (HiMedia, West Chester, PA, USA).
(§4) Minimal inhibitory concentration (MIC) measurements. The MIC of the different treatments on various bacteria strains was determined using the Clinical Laboratory Standards Institute broth microdilution method^8. Briefly, broth media (100 μL) containing two-fold serial dilutions of each compound were placed into a 96-well tissue culture plate. Each bacterial strain was taken from an exponentially growing culture and diluted to 5×10^6 CFU/mL. Ten microliters of such microbial suspension was inoculated in each well of the plate, resulting in a final bacteria concentration of approximately 5×10^5 CFU/mL. The bacteria were cultured at 37° C. for one day and their growth was observed by reading the optical density (OD) at 600 nm. The MIC was determined as the treatment concentration at which no microbial growth was observed. Broth containing microbial cells alone was used as a positive control and broth without bacteria inoculation was used as a negative control. Each test was carried out in 3 replicates.
In general terms: In broth dilution the organism is exposed to a series of concentrations in liquid medium.

The test system of a further experiment is MRSA (ATCC 33591). The experiment is described as follows: MIC, broth microdilution. In kind it is cell-based, S. aureus. Here is the method: as §3, §4
The test system of experiment [2] is P. aeruginosa (ATCC 27853). The experiment is described as follows: Checkerboard assay, FIC index. In kind it is cell-based. The settings on record: for FIC index: antibiotic with the PBAE-G polymer. The method, then:
as §1, §2

Experiment [3] concerns Raw 264.7 murine macrophage cells. Put plainly: Cell viability test (MTT assay). In kind it is cell-based. The following applies: Mus musculus, RAW264.7, 24 h, one day treatment. The method, then: Cell viability test. Cytotoxicity of different NP components was tested using MTT assays. Raw 264.7 murine macrophage cells were seeded onto a 96-well plate (1×10^4 cells/well) and cultured overnight. The cells were then treated with free antibiotic, PBAE-G polymer or NP with serial dilutions for one day and their viability was measured by a standard MTT assay. Data were collected by monitoring the difference between the absorbance at 560 nm and 650 nm using a GloMax-Multi Microplate Multimode Reader (Promega, WI, USA).
(In general: Formazan colour is commonly taken as a measure of viable cells.)

A further experiment deals with E. coli (ATCC 25922). The experiment is described as follows: MIC, broth microdilution. In kind it is cell-based. The settings on record: Escherichia coli, ATCC25922; no pH/H2O2 stimulus stated. The method, then:
as §3, §4

In experiment [4] the test system is M. smegmatis (MC^2 155). Put plainly: MIC, broth microdilution. The settings on record: Mycolicibacterium smegmatis, MC^2155; no pH/H2O2 stimulus stated. In kind it is cell-based. Here is the method:
as §3, §4

The subject of another experiment is E. coli (DH5 alpha). Put plainly: MIC, broth microdilution. In kind it is cell-based. The following applies: Escherichia coli; no pH/H2O2 stimulus stated. Here is the method: as §3, §4
The test system of a further experiment is S. aureus (Newman). The experiment is described as follows: MIC, broth microdilution. In kind it is cell-based. The settings on record: Staphylococcus aureus, no pH/H2O2 stimulus stated. The method, then: as §3, §4
The subject of experiment [5] is M. smegmatis (MC^2 155). The experiment is described as follows: Checkerboard assay, FIC index. In kind it is cell-based. The following applies: low pH and high ROS condition. Here is the method:
as §1, §2

The subject of a further experiment is E. coli ATCC 25922. The experiment is described as follows: Evaluation of antibiotic resistance development (serial passaging). In kind it is cell-based. The following applies: sub-lethal dose (0.5 MIC), after 20 passages. The method, then:
Evaluation of antibiotic resistance development. […] The OD 600 value in each tube was examined to determine the MIC, and the bacteria cultured in the tube containing rifampicin at a ½ MIC was used for passage. The MIC for each passage was recorded and compared to that of the first passage to determine the drug resistance enhancement.

A further experiment concerns MRSA biofilm. Put plainly: Biofilm inhibition assay (crystal violet). In kind it is cell-based, S. aureus. The following applies: 32 μg/mL. Here is the method:
Biofilm inhibition assays. Exponentially growing bacteria were inoculated into 96 well plates (1×10^4 cell/well) containing MHB broth with 2% (w/v) glucose, and incubated under stationary conditions at 37° C. for one day. After biofilm formation, the medium was discarded, and the plates were washed with PBS to remove the planktonic bacteria. Fresh MHB broth containing serially diluted free rifampicin or NP was added to the plates and incubated at 37° C. for another 24 h. The media in each well was then removed, and the plates were washed carefully with PBS one time. The biofilm in each well was fixed with 95% ethanol for 15 min and stained with 0.1% crystal violet for 15 min. After the biofilm was washed with Milli-Q water for three times, 33% v/v acetic acid (100 μL/well) was added to the plate to solubilize the crystal violet staining. OD 560 in each well was read to assess the biofilm formation.

[6] abbreviates: Table 1, antibiotic alone, in µg/mL (unit assumed).

Converted amounts (≈) assume the structure as drawn. Like-named read-outs stand apart in the source and are kept apart here. A value given as a limit tells only on which side of the number the result lay.

This is an account of results in patent US12377052B2, “Dual-responsive nanoparticles for enhanced antibacterial efficacy” (priority 2020, dated 2025).

Regarding `CC1(C)S[C@@H]2[C@H](NC(=O)[C@H](N)c3ccc(O)cc3)C(=O)N2[C@H]1C(=O)O` [Amoxicillin], the results for the FIC index (with MRSA; in [2]) were 0.75 and 2, respectively. The MIC in [1] (setting [6]) turned out to be 1024; in the experiment on MRSA (ATCC 33591) (Table 1, antibiotic alone), 128 µg/mL (≈ 350 µM).
The like results for `O=C(O)c1cn(C2CC2)c2cc(N3CCNCC3)c(F)cc2c1=O` [Ciprofloxacin] were, in that order, 2, 1, 0.25 and 0.5 µg/mL (≈ 1.51 µM).
The matching figures for `CCC[C@@H]1C[C@@H](C(=O)N[C@@H]([C@H]2O[C@H](SC)[C@H](O)[C@@H](O)[C@H]2O)[C@H](C)Cl)N(C)C1` [Clindamycin]: 0.562, under 0.25, over 1024 and 32 µg/mL (≈ 75.3 µM).
In general, IC50 refers to the concentration that inhibits the measured activity by half. Read a low IC50 as greater potency in that assay. Turning to `CO[C@H]1/C=C/O[C@@]2(C)Oc3c(C)c(O)c4c(O)c(c(/C=N/N5CCN(C)CC5)c(O)c4c3C2=O)NC(=O)/C(C)=C\C=C\[C@H](C)[C@H](O)[C@@H](C)[C@@H](O)[C@@H](C)[C@H](OC(C)=O)[C@@H]1C` [Rifampicin], the results for the FIC index (in the experiment with MRSA; in [2]) were 1 and 0.25, respectively. In experiment [3], this compound showed an IC50 of 210 µg/mL (≈ 255 µM). Moreover, the MIC was 16 µg/mL (≈ 19.4 µM) with E. coli (ATCC 25922); 32 µg/mL (≈ 38.9 µM) in experiment [1] (Pseudomonas aeruginosa, ATCC27853, no pH/H2O2 stimulus stated, read-out: MIC P. aeruginosa (ATCC 27853)); 32 in experiment [1] (setting [6]); 128 µg/mL (≈ 156 µM) against M. smegmatis (MC^2 155) [4]; 16 µg/mL (≈ 19.4 µM) against E. coli (DH5 alpha); 0.016 µg/mL (≈ 0.0194 µM) against S. aureus (Newman). Besides, the MIC with MRSA (ATCC 33591) (Staphylococcus aureus, no pH/H2O2 stimulus stated, read-out: MIC MRSA (ATCC 33591)) came to 0.016 µg/mL (≈ 0.0194 µM); in the experiment on MRSA (ATCC 33591) (Table 1, antibiotic alone), 0.016 µg/mL (≈ 0.0194 µM). The “FIC index between rifampicin and the PBAE-G-B polymer” value in experiment [2] (low pH and high ROS condition) came out at 0.188; in the experiment on M. smegmatis (MC^2 155) [5] it was 0.25. Further, in the experiment on E. coli ATCC 25922, the “MIC increase compared to initial” value came to 40 fold. Besides, the biofilm remained entry with MRSA biofilm is “More than 80%”.
Consider `[H]/N=C(/N)N[C@H]1[C@H](O)[C@@H](O)[C@H](O[C@@H]2O[C@@H](C)[C@](O)(C=O)[C@H]2O[C@@H]2O[C@@H](CO)[C@H](O)[C@@H](O)[C@@H]2NC)[C@@H](N/C(N)=N\[H])[C@@H]1O` [Streptomycin], for which the FIC index in the experiment on MRSA came to 0.266; in experiment [2] it was 0.25. For the same compound, the MIC is 16 in experiment [1] (setting [6]) and 16 µg/mL (≈ 27.5 µM) with MRSA (ATCC 33591) (Table 1, antibiotic alone).
The matching figures for `CN[C@H](CC(C)C)C(=O)N[C@H]1C(=O)N[C@@H](CC(N)=O)C(=O)N[C@H]2C(=O)N[C@H]3C(=O)N[C@H](C(=O)N[C@H](C(=O)O)c4cc(O)cc(O)c4-c4cc3ccc4O)[C@H](O)c3ccc(c(Cl)c3)Oc3cc2cc(c3O[C@@H]2O[C@H](CO)[C@@H](O)[C@H](O)[C@H]2O[C@H]2C[C@](C)(N)[C@H](O)[C@H](C)O2)Oc2ccc(cc2Cl)[C@H]1O` [Vancomycin]: 1, 2, 1024 and 1 µg/mL (≈ 0.69 µM).
The like results for Gentamicin were, in that order, 0.5, 0.375, 1 and 1 µg/mL.
